# Test results taken from PubChem BioAssay AID1645862 (Buhrlage Lab, Dana-Farber Cancer Institute and Novartis …, 2021).
# Active and inactive are the calls of the source. How the calls were made is not given here. Bridge positions count the residues as written; N and C are the ends. Peptide text beside a SMILES is read from it. * marks the point of attachment. ξ: configuration not given here. Pentadecanoyl(3ξ-OH,15-Gua) = N=C(N)NCCCCCCCCCCCCC(O)CC(=O)*
# Molecular target: Ubiquitin carboxyl-terminal hydrolase 8 (Homo sapiens) (UniProt P40818)
# Sequence (P40818 whole entry, looked up): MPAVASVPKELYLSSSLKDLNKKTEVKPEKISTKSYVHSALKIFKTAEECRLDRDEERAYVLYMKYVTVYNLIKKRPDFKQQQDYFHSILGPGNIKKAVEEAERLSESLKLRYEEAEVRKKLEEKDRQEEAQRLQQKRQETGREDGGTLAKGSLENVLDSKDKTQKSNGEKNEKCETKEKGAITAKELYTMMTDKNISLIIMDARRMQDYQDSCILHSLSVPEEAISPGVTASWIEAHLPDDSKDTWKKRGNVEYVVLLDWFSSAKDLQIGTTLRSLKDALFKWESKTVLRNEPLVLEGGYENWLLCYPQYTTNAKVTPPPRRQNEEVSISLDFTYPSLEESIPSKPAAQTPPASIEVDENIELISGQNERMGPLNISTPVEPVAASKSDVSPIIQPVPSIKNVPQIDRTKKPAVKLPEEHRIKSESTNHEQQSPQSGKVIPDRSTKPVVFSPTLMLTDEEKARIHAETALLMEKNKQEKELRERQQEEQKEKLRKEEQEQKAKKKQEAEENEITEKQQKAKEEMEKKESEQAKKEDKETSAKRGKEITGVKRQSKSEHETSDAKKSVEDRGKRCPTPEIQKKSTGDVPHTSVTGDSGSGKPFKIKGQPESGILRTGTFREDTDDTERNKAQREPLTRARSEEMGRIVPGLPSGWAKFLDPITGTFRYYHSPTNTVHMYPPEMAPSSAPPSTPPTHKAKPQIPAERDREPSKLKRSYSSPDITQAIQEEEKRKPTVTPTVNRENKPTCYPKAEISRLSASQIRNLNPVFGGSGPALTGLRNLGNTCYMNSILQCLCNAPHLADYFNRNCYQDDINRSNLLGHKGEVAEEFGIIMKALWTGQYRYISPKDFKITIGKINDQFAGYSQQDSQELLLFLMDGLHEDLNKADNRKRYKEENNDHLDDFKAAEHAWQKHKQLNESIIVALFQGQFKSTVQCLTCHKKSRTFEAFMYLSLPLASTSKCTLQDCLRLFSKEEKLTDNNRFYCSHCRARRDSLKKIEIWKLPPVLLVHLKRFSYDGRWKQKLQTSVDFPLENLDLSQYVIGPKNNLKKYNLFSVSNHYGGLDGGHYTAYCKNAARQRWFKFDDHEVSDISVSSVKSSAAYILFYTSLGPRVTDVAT
# Assay: Ubiquitin-specific protease 8 inhibitors, concentration-effect, biochemical, validation of initial actives (AID 1645862);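 further: potency reflects inhibition of USP8 cleavage of a ubiquitin rhodamine substrate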
# Details: recombinant USP8 deubiquitinase activity assay
row,IC50,Structure (SMILES)
1,> 40 µM (inactive),COc1ccc2cc(C(=O)N3CCC(C(C)C(=O)NCc4cccc(F)c4)CC3)[nH]c2c1 (stereo not given)
2,> 40 µM (inactive),O=C(Cn1cc(C(=O)c2ccccc2)c(=O)c2cc(F)ccc21)Nc1ccc2c(c1)OCCO2
3,> 40 µM (inactive),Cc1cc(C)c(NC(=O)CSc2nc3nccnc3c(=O)n2Cc2ccccc2Cl)c(C)c1
4,> 40 µM (inactive),Cc1ccccc1Cn1c(=O)n(CC2CCC(C(=O)NC3CCCC3)CC2)c(=O)c2ccccc21 (stereo not given)
5,> 40 µM (inactive),COc1ccc(CC(=O)OCC(=O)N2c3ccccc3NC(=O)C2(C)C)cc1
6,> 40 µM (inactive),O=C(NCc1ccco1)c1ccc(Cn2c(=O)c3sccc3n(Cc3cc(=O)n4ccccc4n3)c2=O)cc1
7,> 40 µM (inactive),O=C(Cn1c(-c2ccccc2)ncc(C(=O)NC2CC2)c1=O)Nc1ccccc1
8,> 40 µM (inactive),Cc1ccc(NC(=O)Cn2cncc(-c3nc(-c4ccccc4)cs3)c2=O)cc1F
9,> 40 µM (inactive),O=C(Cn1c(=O)[nH]c2ccccc2c1=O)NCc1ccccc1Cl
10,> 40 µM (inactive),O=C(Nc1ccc(NC(=O)c2ccccc2O)cc1)Nc1ccc(OCc2ccccc2)cc1
11,> 40 µM (inactive),COCCCNC(=O)c1ccc(Cn2c(=O)c3ccccc3n(CC(=O)Nc3ccc4c(c3)OCCO4)c2=O)cc1
12,> 40 µM (inactive),COc1ccc(-n2c(=O)c3ccc(C(=O)NCCc4ccccc4)cc3n(CC(=O)NCc3ccco3)c2=O)cc1
13,1.46 µM,Cc1cc(O)c2c3c(c(O)cc2c1)C(=O)c1c(O)cccc1C3=O
14,> 40 µM (inactive),CCn1cc2c(n1)c(=O)n(Cc1ccccc1)c(=O)n2CC(=O)Nc1ccc(OC)cc1
15,> 40 µM (inactive),O=C(COc1cccc(-c2noc(-c3ccc([N+](=O)[O-])cc3)n2)c1)Nc1ccccc1
16,> 40 µM (inactive),O=C(Nc1ccc(F)cc1F)NC1CCN(c2ccccc2)C1=O (stereo not given)
17,> 40 µM (inactive),Cc1ccc2cc(CNc3ccccc3)c(=O)n(CC(=O)Nc3ccccc3C)c2c1
18,> 40 µM (inactive),Fc1cccc(Nc2ncnc3c2oc2ccccc23)c1

row,IC50,Structure (SMILES)
1,> 40 µM (inactive),O=C(CCn1c(=O)c2sccc2n(Cc2ccc([N+](=O)[O-])cc2)c1=O)NCc1ccccc1
2,> 40 µM (inactive),Cc1cc(OCC(=O)Nc2ccc3c(c2)NC(=O)CO3)ccc1Cl
3,> 40 µM (inactive),Cc1c(-c2nc(-c3ccccc3Cl)no2)nnn1-c1cccc(F)c1
4,> 40 µM (inactive),Cc1cc(=O)[nH]c(NC2CCN(S(=O)(=O)c3ccccc3C(F)(F)F)CC2)n1
5,> 40 µM (inactive),Cc1c(C(=O)OCC(=O)Nc2ccc3c(c2)OCO3)oc2ccc(Br)cc12
6,38.2 µM,COc1ccc(CC(=O)Nc2c(NCc3ccccc3)c3ccccc3oc2=O)cc1
7,> 40 µM (inactive),CN1CC(c2ncn[nH]2)c2cc(C(=O)NCc3cccc(F)c3)ccc21 (stereo not given)
8,> 40 µM (inactive),CCN(CC)C(=O)c1sc(NC(=O)/C=C/c2c(F)cccc2Cl)c(C#N)c1C
9,> 40 µM (inactive),Cc1ccc(Cn2c(C(=O)O)c(CNCc3ccco3)c3ccccc32)cc1
10,> 40 µM (inactive),O=C(Nc1ccccc1Cl)c1cc(-c2ccncc2)n[nH]1
11,> 40 µM (inactive),O=C(Cn1cc(C(=O)c2ccc(F)cc2)c(=O)c2ccccc21)Nc1ccc2c(c1)OCO2
12,> 40 µM (inactive),O=C(COc1ccc(Cl)cc1Cl)Nc1ccc2[nH]c(=O)[nH]c2c1
13,18.7 µM,Cc1ccc(NC(=O)Cc2nnc3c(-c4nc(C5CC5)no4)cccn23)cc1
14,> 40 µM (inactive),N#Cc1ccc(NC(=O)Nc2cccn(Cc3ccccc3F)c2=O)cc1
15,> 40 µM (inactive),O=C(COC(=O)c1cccc([N+](=O)[O-])c1)Nc1cccc(Oc2ccccc2)c1
16,> 40 µM (inactive),CCCc1nnc(NC(=O)c2cc(-c3ccccc3O)n[nH]2)s1
17,> 40 µM (inactive),COc1ccccc1CNC(=O)CCCCn1c(=O)c2ccccc2n(CC(=O)Nc2ccc(C)cc2C)c1=O

# The remaining lines, values behind:
row,Structure (SMILES),IC50
1,O=C(CSc1ccc2nnc(-c3ccc(Cl)cc3)n2n1)N1CCCCC1,> 40 µM (inactive)
2,COc1ccccc1N(CC(=O)N1c2ccccc2CC1C)S(=O)(=O)c1ccc(F)cc1 (stereo not given),> 40 µM (inactive)
3,Cc1sc2ccn(C)c(=O)c2c1C(=O)NC1CCCC1,2.18 µM
4,CCOC(=O)N1CCN(C(=O)c2ccc(NCc3ccc(F)cc3)c(S(=O)(=O)Nc3cccc(C(F)(F)F)c3)c2)CC1,> 40 µM (inactive)
5,CC1=C(C)C(c2c(-c3ccc(C)cc3)[nH]c3ccccc23)N(C(C)(C)C)C1=O (stereo not given),> 40 µM (inactive)
6,O=C(Cn1c(=O)n(Cc2ccc(C(=O)NCc3ccco3)cc2)c(=O)c2ccccc21)Nc1ccc2c(c1)OCCO2,> 40 µM (inactive)
7,O=c1[nH]c(C2CCN(S(=O)(=O)c3ccc(S(=O)(=O)NC4CCCC4)cc3)CC2)nc2c1nnn2Cc1cccc(Cl)c1,> 40 µM (inactive)
8,NS(=O)(=O)c1ccc(CNC(=O)c2ccc(Cl)c(S(=O)(=O)Nc3cc(Cl)ccc3Cl)c2)cc1,> 40 µM (inactive)
9,Cc1cc(=O)n(C)c2c(O)c3c(cc12)c(C)cc(=O)n3C,0.256 µM
10,Cc1ccc2c(c1)N=C(c1ccc([N+](=O)[O-])cc1)CO2,> 40 µM (inactive)
11,CCOc1ccc(-c2nnc(-c3cnc4onc(C5CCCC5)c4c3)o2)cc1,> 40 µM (inactive)
12,COc1cc2c(c(OC)c1OC)-c1ccc(NCCc3cccc(F)c3)c(=O)cc1[C@@H](NC(C)=O)CC2,> 40 µM (inactive)
13,COc1ccc(Cn2c(=O)[nH]c3cc(C(=O)NCCCN4CCN(c5cccc(Cl)c5)CC4)ccc3c2=O)cc1,> 40 µM (inactive)
14,COc1ccc2[nH]c(=O)c(CN(C)C(=O)c3ccc([N+](=O)[O-])cc3)cc2c1,> 40 µM (inactive)
15,CC[C@H](C)[C@H](NC(=O)[C@H]([C@@H](C)CC)N(C)C(C)=O)C(=O)N[C@H](C(=O)N[C@@H](CC(C)C)C(=O)C1(C)CO1)[C@@H](C)O (stereo not given in full),> 40 µM (inactive)
16,N#C/C(=C\c1ccc(OCc2cccc(C(=O)O)c2)cc1)c1ccc(F)cc1,> 40 µM (inactive)
17,CCOc1ccc2[nH]c3c(=O)n(CCc4ccc(OC)cc4)cnc3c2c1,> 40 µM (inactive)
18,CC(C)CC(=O)Nc1cc(F)c2nc(N3CCOCC3)ccc2c1,> 40 µM (inactive)
19,CC(C)=CCc1c(O)cc2c(c1C)OC(=O)c1c(C)c(Cl)c(O)c(CO)c1O2,> 40 µM (inactive)
20,COc1ccc(CNc2ccc(C(=O)OCc3ccccc3F)cc2S(=O)(=O)Nc2cccc(OC)c2)cc1,> 40 µM (inactive)
21,CC(=O)NS(=O)(=O)c1ccc(NC(=O)/C=C/c2cn(-c3ccccc3)nc2-c2ccccc2)cc1,29.4 µM
22,Cc1ccc(S(=O)(=O)Nc2nc(-c3ccc4c(c3)NC(=O)C(C)O4)c(C)s2)cc1 (stereo not given),> 40 µM (inactive)
23,"CC1NC(=O)C(CC(N)=O)NC(=O)C(C(C)O)NC(=O)C(Cc2ccc(O)cc2)NC(=O)C(C(C)C)NC(=O)C(NC(=O)CC(O)CCCCCCCCCCCCN=C(N)N)C(C)OC1=O (stereo not given) ({Pentadecanoyl(3ξ-OH,15-Gua)}-TVYTNA; ester 1-C; configuration not given here)",> 40 µM (inactive)
24,Cc1cccc(OCC2=NN3C(=N)/C(=C\c4cc(C)n(-c5cccc(F)c5)c4C)C(=O)N=C3S2)c1,> 40 µM (inactive)
25,O=C(Cn1c(=O)[nH]c2c(-c3ccc(F)cc3)c[nH]c2c1=O)NCc1ccc(F)cc1,> 40 µM (inactive)
